Measured values as given in patent US20100311770A1, “COMPOUND COMBINATIONS FOR INHIBITING CELL DIVISION AND METHODS FOR THEIR IDENTIFICATION AND USE” (President and Fellows of Harvard College, priority 2005, published 2010).
pIC50: −log10 of the molar value. Converted amounts (≈) assume the structure as drawn. “Also recorded” adds a separate entry of the source.

Columns and labels:
E. coli strain DRC39 = assay: combination anti-bacterial treatment at sub-MIC concentrations, cell growth by turbidity or OD600; type: cell-based; conditions: for amount of growth relative to absence of compound / growth inhibition: single compound
Description: Cell growth was assessed by visual inspection of cells incubated in culture tubes in this experiment and in the second, third, and fourth experiments described in this Example. In the fifth experiment growth was measured by reading optical density (OD600) using a multiwell plate reader. Cells were inoculated at a low concentration (1-2×10^5 cells/ml), such that the medium appeared clear.

[1] = tested on: E. coli DRC39 (ΔacrAB::kan); type: cell-based; conditions: for MIC: E. coli DRC39 (ΔacrAB::kan), MIC99
[2] = target: M. tuberculosis FtzZ (FtsZMt) GTPase (Mycobacterium tuberculosis, UniProt P9WN95); assay: malachite green-phosphomolybdate assay of FtsZ GTPase activity; type: biochemical; conditions: 5 min preincubation at 30° C., 1 mM GTP; average of three determinations
Chain of M. tuberculosis FtzZ (FtsZMt) GTPase (P9WN95 whole entry): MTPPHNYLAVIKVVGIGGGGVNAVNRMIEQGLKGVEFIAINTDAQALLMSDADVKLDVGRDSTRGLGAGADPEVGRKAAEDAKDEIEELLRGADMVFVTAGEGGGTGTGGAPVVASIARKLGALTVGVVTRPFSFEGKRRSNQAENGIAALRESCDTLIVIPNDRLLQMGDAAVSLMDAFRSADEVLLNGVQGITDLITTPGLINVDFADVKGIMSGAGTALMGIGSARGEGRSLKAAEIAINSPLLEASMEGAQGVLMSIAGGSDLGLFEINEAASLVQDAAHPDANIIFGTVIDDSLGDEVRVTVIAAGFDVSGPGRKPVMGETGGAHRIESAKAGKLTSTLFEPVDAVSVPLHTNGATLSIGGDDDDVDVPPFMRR

[3] = target: E. coli FtsZ (FtsZEc) GTPase (Escherichia coli, UniProt P0A9A6); conditions: read-out: IC50 FtsZEc GTPase; 5 min preincubation at 30° C., 1 mM GTP; average of three determinations
Chain of E. coli FtsZ (FtsZEc) GTPase (P0A9A6 whole entry): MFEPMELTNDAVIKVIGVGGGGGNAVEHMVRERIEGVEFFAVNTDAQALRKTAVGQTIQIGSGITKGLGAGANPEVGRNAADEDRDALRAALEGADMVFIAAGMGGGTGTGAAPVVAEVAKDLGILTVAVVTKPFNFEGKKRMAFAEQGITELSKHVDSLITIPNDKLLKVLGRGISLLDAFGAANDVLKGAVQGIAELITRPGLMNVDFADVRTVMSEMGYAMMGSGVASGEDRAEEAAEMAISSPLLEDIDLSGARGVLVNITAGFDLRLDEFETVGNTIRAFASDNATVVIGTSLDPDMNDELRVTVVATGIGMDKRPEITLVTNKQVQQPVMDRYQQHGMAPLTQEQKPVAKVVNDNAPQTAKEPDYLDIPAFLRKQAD
Description: FtsZ was preincubated with varying concentrations of compounds or with 3% DMSO in buffer E for 5 min at 30° C., before adding 1 mM GTP to the reactions. Reaction kinetics were followed by measuring inorganic phosphate released upon GTP hydrolysis. The IC50 values were extrapolated from log dose-response curves and are averages from three independent determinations.

Vibrio cholerae = assay: MIC, standard broth dilution
[4] = tested on: E. coli DRC42 (DRC39 recA::cat); assay: MIC, standard broth dilution
[5] = tested on: FtsZ ring assembly in E. coli DRC39 cells; type: cell-based
Bacillus subtilis = assay: MIC / killing, broth culture
[6] = tested on: E. coli MC1000 (wild-type); assay: MIC, standard broth dilution; conditions: MIC99
Staphylococcus aureus = assay: MIC, standard broth dilution
Clostridium perfringens = type: cell-based
E. coli DRC40/pBR-ftsZ+ = type: cell-based
[7] = tested on: E. coli DRC40 (DRC39 ftsZ84); assay: MIC / growth and phenotype, broth culture; type: cell-based
[8] = tested on: gram-negative and gram-positive bacteria; assay: MIC against a variety of bacteria (FIG. 19); type: cell-based
Description: FIG. 19 is a table illustrating the minimum inhibitory concentrations of FtsZ GTPase inhibitory compounds identified in vitro. The compounds were tested against a variety of gram-negative and gram-positive bacteria.
The minimum inhibitory concentrations for some of the identified compounds against various bacterial species and strains were evaluated and results are shown herein (see, e.g., FIG. 19 for MIC values of compounds identified using in vitro assays, and see Table 3 for MIC values for compound 26E-10).

[9] = C. perfringens, 80 μM, anaerobic conditions

**Q.** Which results are given for `CCN1C(=Cc2ccc3c4ccccc4ccc3[n+]2CC)C=Cc2ccccc21.Cc1ccc(S(=O)(=O)[O-])cc1` [7N-12]?
**A.** amount of growth relative to absence of compound (E. coli strain DRC39; 0.3 μM): 98%; growth inhibition (E. coli strain DRC39; 0.3 μM): 2%; MIC [1]: 1.25 µM

**Q.** With `CCN(CC)CCNc1nc(C=Cc2ccc(Cl)cc2)nc2cc3ccccc3cc12` [16L-09] as the compound, how does the “reduction in MIC when administered in combination” value (E. coli strain DRC39; in combination with 26E-10 at sub-MIC concentrations) read?
**A.** 4 fold

**Q.** And the pIC50 [2]?
**A.** 4.30

**Q.** And the pIC50 [3]?
**A.** 4.82

**Q.** And the MIC [1]?
**A.** 10 µM (≈ 4.31 µg/mL)

**Q.** For `CC[n+]1ccc(/C=C/N(C)c2ccccc2)c2ccccc21.[I-]` [26E-10], which MIC (Vibrio cholerae) is on record?
**A.** 40 µM

**Q.** What about the MIC [4] of the same compound?
**A.** 10 µM

**Q.** And the “DNA replication / chromosome segregation (DAPI staining of nucleoids)” value ([5]; 10 μM)?
**A.** does not affect DNA replication or chromosome segregation

**Q.** What about the “Z-rings in elongated cells” value ([5]; 10 μM (MIC), within 60 min) of the same compound?
**A.** markedly reduced in number and diminished in intensity

**Q.** What about the Z-rings ([5]; 10 μM, after 90 min treatment) of the same compound?
**A.** most of the cells were devoid of distinct Z-rings

**Q.** And the “cell length (filamentation)” value ([5]; 10 μM, within 60 min of treatment)?
**A.** ~4 ×

**Q.** And the “killing of B. subtilis” value (Bacillus subtilis)?
**A.** efficiently killed

**Q.** What about the MIC (Bacillus subtilis; Bacillus subtilis) of the same compound?
**A.** 40 µM

**Q.** And the “amount of growth relative to absence of compound” value (E. coli strain DRC39; 5 μM)?
**A.** 41%

**Q.** And the growth inhibition (E. coli strain DRC39; 5 μM)?
**A.** 59%

**Q.** What about the MIC [6] of the same compound?
**A.** >40 µM

**Q.** And the MIC (Staphylococcus aureus)?
**A.** 20 µM

**Q.** And the “effect on cell growth” value (Clostridium perfringens; [9])?
**A.** without any overt effect on cell growth

**Q.** And the phenotype (Clostridium perfringens; [9])?
**A.** filamentation phenotype; also recorded: filaments

**Q.** And the MIC (Clostridium perfringens; Clostridium perfringens)?
**A.** > 80 µM

**Q.** What about the “cell morphology and density” value ([1]; DRC39, 5 μM compound, 30° C.) of the same compound?
**A.** mixture of filaments of varying lengths and short cells present at a low density

**Q.** What about the “phenotype at MIC” value ([1]; E. coli DRC39) of the same compound?
**A.** filaments

**Q.** What about the MIC [1] of the same compound?
**A.** 10 µM

**Q.** What about the “cell density and filamentation” value (E. coli DRC40/pBR-ftsZ+; DRC40/pBR-ftsZ+, 5 μM compound, versus DRC40/pBR322) of the same compound?
**A.** higher cell density and less pronounced filamentation

**Q.** And the MIC (E. coli DRC40/pBR-ftsZ+; DRC40 with wild-type ftsZ in trans (pBR-ftsZ+))?
**A.** 10 µM

**Q.** What about the growth ([7]; DRC40/pBR322, 5 μM compound, 30° C.) of the same compound?
**A.** absolutely no growth

**Q.** What about the “phenotype at MIC” value ([7]; E. coli DRC40) of the same compound?
**A.** filaments

**Q.** What about the MIC ([7]; E. coli DRC40 (ftsZ84), 30° C., MIC99) of the same compound?
**A.** 2.5 µM

**Q.** `Nc1c(C=Cc2cc3cc(C4=NCCN4)ccc3o2)[nH]c2cc(C3=NCCN3)ccc12` [58P-18] was tested. Which Z-ring assembly ([5]; 40 μM) did it give?
**A.** none of the treated cells appear to contain a medial FtsZ ring

**Q.** What about the “time until cells start elongating” value ([5]; 40 μM) of the same compound?
**A.** ≤ 60 min

**Q.** And the pIC50 [2]?
**A.** 4.52

**Q.** What about the pIC50 [3] of the same compound?
**A.** 5.40

**Q.** What about the MIC [1] of the same compound?
**A.** 80 µM (≈ 32.8 µg/mL)

**Q.** Which results are given for `Oc1ccc(Cl)cc1Cc1cc(Cl)cc(Cc2cc(Cl)ccc2O)c1O` [27D-12]?
**A.** activity against gram negative bacteria [8]: kills gram negative species; activity against gram positive bacteria [8]: effective against gram positive bacteria at very low concentrations; pIC50 [2]: 4.26; pIC50 [3]: 5.30; MIC [1]: 20 µM (≈ 8.19 µg/mL)
